In the CheMixHub viscosity set:

Assay: xn = mol fraction of the nth substance listed

CCC(C)=O + Cc1ccc(C)cc1
307.35 K, 101.33 kPa
Conditions | viscosity [mPa·s]
x1 = 0.1273 | 0.515
x1 = 0.311 | 0.48
x1 = 0.3949 | 0.457
x1 = 0.5326 | 0.434
x1 = 0.5913 | 0.419
x1 = 0.6949 | 0.401
x1 = 0.7871 | 0.388

COC(C)=O + Cc1ccc(C)cc1
viscosity [mPa·s], 101 kPa
Conditions | 298.15 K | 308.15 K
x1 = 0.0478 | 0.592 | 0.521
x1 = 0.1516 | 0.548 | 0.49
x1 = 0.2496 | 0.514 | 0.465
x1 = 0.3526 | 0.483 | 0.442
x1 = 0.4453 | 0.46 | 0.423
x1 = 0.492 | 0.449 | 0.415
x1 = 0.5525 | 0.437 | 0.404
x1 = 0.6515 | 0.42 | 0.389
x1 = 0.7506 | 0.406 | 0.376
x1 = 0.8511 | 0.395 | 0.365
x1 = 0.9428 | 0.388 | 0.356

COC(C)=O + Cc1cccc(C)c1
viscosity [mPa·s], 101 kPa
Conditions | 298.15 K | 308.15 K
x1 = 0.0409 | 0.565 | 0.515
x1 = 0.151 | 0.524 | 0.484
x1 = 0.2488 | 0.493 | 0.46
x1 = 0.3516 | 0.466 | 0.438
x1 = 0.4423 | 0.446 | 0.421
x1 = 0.4928 | 0.436 | 0.412
x1 = 0.5514 | 0.426 | 0.403
x1 = 0.6505 | 0.412 | 0.388
x1 = 0.7498 | 0.4 | 0.376
x1 = 0.8506 | 0.392 | 0.364
x1 = 0.9429 | 0.386 | 0.356

c1ccc2ncccc2c1 + Cc1cccc(O)c1
viscosity [mPa·s], 101.3 kPa
Conditions | x1 = 0.0998 | x1 = 0.198 | x1 = 0.3012 | x1 = 0.3984 | x1 = 0.4984 | x1 = 0.5985 | x1 = 0.6965 | x1 = 0.798 | x1 = 0.8948
298 K | 15.26 | 19.93 | 25.3 | 22.87 | 15.79 | 11.02 | 7.376 | 5.594 | 4.358
303 K | 11.51 | 15.03 | 19.24 | 17.85 | 12.71 | 8.925 | 6.266 | 4.872 | 3.761
308 K | 8.895 | 11.46 | 15.1 | 14.05 | 9.986 | 7.269 | 5.301 | 4.223 | 3.291
313 K | 6.912 | 8.917 | 11.94 | 11.42 | 8.111 | 6.172 | 4.512 | 3.686 | 2.959
318 K | 5.586 | 7.128 | 9.595 | 9.188 | 6.608 | 5.184 | 3.835 | 3.204 | 2.62

C1CCCCC1 + Cc1ccccc1
viscosity [mPa·s]
Conditions | 101 kPa | 101.33 kPa
293.95 K, x1 = 0.1 | – | 0.6126
294.15 K, x1 = 0.5 | – | 0.6762
294.25 K, x1 = 0.2 | – | 0.6123
294.45 K, x1 = 0.3 | – | 0.6228
294.75 K, x1 = 0.4 | – | 0.6357
294.75 K, x1 = 0.6 | – | 0.6922
296.15 K, x1 = 0.8 | – | 0.778
303 K, x2 = 0.04 | 0.7881 | –
303 K, x2 = 0.081 | 0.7486 | –
303 K, x2 = 0.162 | 0.6926 | –
303 K, x2 = 0.324 | 0.6161 | –
303 K, x2 = 0.484 | 0.5705 | –
303 K, x2 = 0.644 | 0.5419 | –
303 K, x2 = 0.803 | 0.5252 | –
303 K, x2 = 0.882 | 0.5268 | –
303 K, x2 = 0.96 | 0.5298 | –
303.15 K, x1 = 0.0958 | 0.5395 | –
303.15 K, x1 = 0.0999 | 0.5263 | –
303.15 K, x1 = 0.2 | 0.5319 | 0.5546
303.15 K, x1 = 0.2959 | 0.5409 | –
303.15 K, x1 = 0.4126 | 0.5566 | –
303.15 K, x1 = 0.4964 | 0.5726 | –
303.15 K, x1 = 0.6005 | 0.6005 | –
303.15 K, x1 = 0.7032 | 0.6367 | –
303.15 K, x1 = 0.7978 | 0.6827 | –
303.15 K, x1 = 0.8946 | 0.7448 | –
303.15 K, x2 = 0.0999 | 0.7364 | –
303.15 K, x2 = 0.2003 | 0.6714 | –
303.15 K, x2 = 0.3 | 0.6226 | –
303.15 K, x2 = 0.3999 | 0.5886 | –
303.15 K, x2 = 0.5 | 0.5635 | –
303.15 K, x2 = 0.6 | 0.5481 | –
303.15 K, x2 = 0.6999 | 0.5352 | –
303.15 K, x2 = 0.7998 | 0.5283 | –
303.15 K, x2 = 0.9 | 0.5256 | –
303.45 K, x1 = 0.1 | – | 0.5477
303.45 K, x1 = 0.3 | – | 0.5618
303.45 K, x1 = 0.8 | – | 0.7003
303.75 K, x1 = 0.5 | – | 0.5991
303.95 K, x1 = 0.4 | – | 0.5688
304.25 K, x1 = 0.6 | – | 0.6143
308.15 K, x2 = 0.0999 | 0.6829 | –
308.15 K, x2 = 0.2003 | 0.6256 | –
308.15 K, x2 = 0.3 | 0.5822 | –
308.15 K, x2 = 0.3999 | 0.5527 | –
308.15 K, x2 = 0.5 | 0.5308 | –
308.15 K, x2 = 0.6 | 0.5152 | –
308.15 K, x2 = 0.6999 | 0.5054 | –
308.15 K, x2 = 0.7998 | 0.4991 | –
308.15 K, x2 = 0.9 | 0.497 | –
312.45 K, x1 = 0.1 | – | 0.4994
312.45 K, x1 = 0.3 | – | 0.51
312.95 K, x1 = 0.8 | – | 0.6059
313.15 K, x1 = 0.2 | – | 0.4976
313.15 K, x1 = 0.4 | – | 0.5137
313.15 K, x1 = 0.4974 | 0.5095 | –
313.15 K, x2 = 0.0999 | 0.6359 | –
313.15 K, x2 = 0.2003 | 0.585 | –
313.15 K, x2 = 0.3 | 0.5466 | –
313.15 K, x2 = 0.3999 | 0.5206 | –
313.15 K, x2 = 0.5 | 0.4996 | –
313.15 K, x2 = 0.7998 | 0.4731 | –
313.15 K, x2 = 0.9 | 0.4707 | –
313.45 K, x1 = 0.5 | – | 0.5412
313.65 K, x1 = 0.6 | – | 0.5482
318.15 K, x2 = 0.0999 | 0.5914 | –
318.15 K, x2 = 0.2003 | 0.548 | –
318.15 K, x2 = 0.3 | 0.5136 | –
318.15 K, x2 = 0.3999 | 0.4913 | –
318.15 K, x2 = 0.5 | 0.4722 | –
318.15 K, x2 = 0.6 | 0.4614 | –
318.15 K, x2 = 0.6999 | 0.4531 | –
318.15 K, x2 = 0.7998 | 0.449 | –
318.15 K, x2 = 0.9 | 0.447 | –
322.75 K, x1 = 0.8 | – | 0.5481
323.15 K, x1 = 0.5989 | 0.4735 | –
323.15 K, x2 = 0.0999 | 0.5534 | –
323.15 K, x2 = 0.2003 | 0.5139 | –
323.15 K, x2 = 0.3 | 0.4839 | –
323.15 K, x2 = 0.3999 | 0.4632 | –
323.15 K, x2 = 0.5 | 0.4466 | –
323.15 K, x2 = 0.6 | 0.4383 | –
323.15 K, x2 = 0.6999 | 0.4304 | –
323.15 K, x2 = 0.7998 | 0.4264 | –
323.15 K, x2 = 0.9 | 0.4243 | –

COC(C)=O + Cc1ccccc1
viscosity [mPa·s], 101 kPa
Conditions | 298.15 K | 308.15 K
x1 = 0.0413 | 0.536 | 0.487
x1 = 0.1501 | 0.502 | 0.459
x1 = 0.2505 | 0.476 | 0.437
x1 = 0.3495 | 0.454 | 0.419
x1 = 0.4385 | 0.437 | 0.404
x1 = 0.4859 | 0.429 | 0.397
x1 = 0.5491 | 0.42 | 0.389
x1 = 0.6486 | 0.407 | 0.377
x1 = 0.7514 | 0.397 | 0.367
x1 = 0.848 | 0.39 | 0.36
x1 = 0.9445 | 0.386 | 0.354

COCCOC + Cc1ccccc1
298.15 K, 101 kPa
Conditions | viscosity [mPa·s]
x1 = 0.102 | 0.535
x1 = 0.2036 | 0.509
x1 = 0.3047 | 0.486
x1 = 0.4053 | 0.462
x1 = 0.5055 | 0.444
x1 = 0.6053 | 0.434
x1 = 0.7046 | 0.429
x1 = 0.8035 | 0.425
x1 = 0.902 | 0.419
